Assay results: US20140364417A1, “METHOD OF TREATING ATRIAL FIBRILLATION” (Gilead Sciences, Inc., priority 2013, published 2014)

Legend:
[1] = system: male Yorkshire pigs; assay: Hemodynamic changes in pigs: sinus rate, mean arterial pressure, left ventricular dP/dt; format: in vivo; conditions: for sinus rate after drug: at the time of electrical testing, ivabradine 0.25 mg/kg, before drug 111±4.0 (ivabradine) and 105±5.7 (ranolazine, combination)
Method: Data were gathered from male Yorkshire pigs (n=16) weighing 35±2 kg (mean±SEM). The animals were preanesthetized with telazol (4.7 mg/kg, intramuscularly) and then anesthetized with alpha-chloralose (100 mg/kg, i.v., bolus followed by 40 mg/kg/h, i.v., continuous infusion). The animals were intubated and ventilation was maintained between 10-16 breaths/min with volumes between 400-500 mL. Vital signs including core body temperature, heart rate, and oxygen saturation were continuously monitored.
The right and left femoral veins were cannulated with 7Fr introducer sheaths using the Seldinger technique to insert catheters in the right atrial (RA) appendage for pacing and for positioning the intrapericardial catheter. Arterial blood pressure was continuously monitored from a femoral arterial sheath, and intravenous fluids were administered through the ear vein. The electrocardiogram (ECG) was recorded with a Prucka Cardiolab workstation (GE Medical Systems, Milwaukee, Wis.) from atrial and ventricular sites.
Ranolazine was given as a 2.4 mg/kg, i.v., bolus followed by continuous infusion of 0.135 mg/kg/min, i.v.
A nonsteerable, quadripolar electrode catheter (Bard Electrophysiology, Lowell Mass.) was placed in the right atrium (RA) via the femoral vein and a second quadripolar electrode catheter in the right ventricle via the jugular vein. A bipolar electrode was placed in the non-coronary cusp of the aorta through the left carotid artery to record the His bundle electrogram. A pigtail catheter was inserted in the left ventricle via the left femoral artery to record and calculate contractility [left ventricular dP/dt]. Transatrial access was employed to deliver acetylcholine (ACh) into the pericardial space. Specifically, a small puncture was made in the RA appendage with the stiff end of a coronary angioplasty guidewire (0.014-inch Wizdom guidewire, Cordis, Miami, Fla., USA) placed within the lumen of a soft infusion catheter (0.038-inch SOS straight-tip, open-ended angiographic guidewire, Bard Electrophysiology). This wire-within-wire system was advanced as a unit into an 8Fr multipurpose guide catheter (MP2, Boston Scientific, Boston Mass.) previously positioned in the RA appendage via a femoral vein under fluoroscopic guidance and into the pericardial space. The infusion catheter was left in the pericardial space for delivery of ACh and the inner guidewire was removed. Conformation of the infusion catheter on fluoroscopy to the curvature of the heart verified its location within the pericardial space. All of the pericardial fluid was then aspirated with the infusion catheter. Intrapericardial access is associated with a hematocrit <2%, indicating minimum trauma from the atrial puncture (Kumar et al., J Cardiovasc Electrophysiol 2009; 20:796-802). The presence of acetylcholinesterase can rapidly degrade ACh and prevent a sustained response to this neurotransmitter.
The statistical tests were carried out with a SAS statistical package (SAS Institute, Cary, N.C.). Effects on electrophysiologic properties were determined by repeated measures analysis of variance (ANOVA) followed by post-hoc t-tests with Bonferroni correction for multiple comparisons. For mean arterial pressure, heart rate, and dominant frequency during atrial fibrillation, we used paired t-tests to compare effects of agents to baseline. All data are reported as mean±SEM, with P<0.05 considered significant.

[2] = system: Guinea Pig Isolated Hearts; assay: S-H interval (AV nodal conduction) in guinea pig isolated, Langendorff-perfused paced hearts; conditions: for second-degree AV block (dropped beats): isolated paced hearts, drug alone; for increase in the S-H interval compared to control (no drug): ivabradine 0.1 μM, ranolazine 2 μM, alone or combined, pacing rate of 4 and 5 Hz, FIG. 1
Source text: To test the combined effects of ranolazine and ivabradine on AV conduction, the following experimental procedures were employed.
Guinea pigs (Hartley) of either sex weighing 300-350 g were anesthetized by inhalation of isoflurane. The chest of a guinea pig was cut open, and the heart was quickly removed and rinsed in ice-cold modified Krebs-Henseleit (K-H) solution. The contents of the modified K-H solution were (in mM) 117.9 NaCl, 4.8 KCl, 2.5 CaCl2, 1.18 MgSO4, 1.2 KH2PO4, 0.5 Na2 EDTA, 0.14 ascorbic acid, 5.5 dextrose, 2.0 pyruvic acid (sodium salt), and 25 NaHCO3. The K-H solution was continuously gassed with 95% O2-5% CO2, and the pH was adjusted to a value of 7.4.
To perfuse the heart by the Langendorff method, the transected aorta was slid onto a glass cannula and secured by a ligature. Retrograde perfusion of the aorta was initiated immediately at a constant flow of 10 mL/min with modified K-H solution warmed to 37.0±0.5° C. A side port in the cannula was used to connect the perfusion line to a pressure transducer (AD Instruments, Australia) for measurement of coronary perfusion pressure (CPP). To facilitate the exit of fluid from the left ventricle, the leaflets of the mitral valve were trimmed with fine spring-handled scissors. Hearts were allowed to beat spontaneously in experiments to measure heart rate, or paced at a constant rate using external electrodes, in experiments to measure AV conduction time. After completion of dissection and instrumentation, stimulus-to-H is bundle (S-H) interval was monitored continuously. Each heart was allowed to equilibrate for 20-40 min before the administration of drug. Experimental interventions were always preceded and followed by control measurements.
To facilitate the recording of a drug effect on the S-H interval, parts of the left and right atrial tissues, including the region of the sinoatrial node, were removed, both to decrease the spontaneous heart rate and to expose the atrial septum for electrode placement. A bipolar Teflon-coated electrode was placed in the wall of the intra-atrial septum to pace the heart. […] Stimuli were provided by a stimulation generator (model 48, Grass Instruments, W. Warwick, R I) and delivered to the heart through a stimulus isolation unit as square wave pulses of 3 msec duration and at least twice the threshold intensity.
A His bundle electrogram was recorded using a Teflon-coated unipolar electrode placed in the right side of the interatrial septum adjacent to the AV junction. […]
Ivabradine (Iva), ranolazine (Ran) or the combination thereof was infused to the hearts. Each concentration of Iva was infused for about 20 min to allow a steady-state response to be recorded, whereas each concentration of ranolazine was infused for 10 min to allow a steady-state response to be recorded. […]

SMILES	sinus rate after drug [1] [beats/min]	effect on left ventricular (LV) dP/dt (contractility) ([1]; pig, in vivo)	effect on mean arterial pressure during sinus rhythm ([1]; pig, in vivo)	second-degree AV block (dropped beats) [2]	increase in the S-H interval compared to control (no drug) [2]	left ventricular (LV) dP/dt after drug ([1]; at 30 min after drug, pacing at 180 beats/min, baseline 2156±647.4 (ivabradine) and 1864±109.1 (ranolazine, combination)) [mmHg/sec]	effect on mean arterial pressure during sinus rhythm ([1]; drugs given separately)	effect on left ventricular (LV) dP/dt (contractility) ([1]; pacing at 180 beats/min)
COc1ccccc1OCC(O)CN1CCN(CC(=O)Nc2c(C)cccc2C)CC1 (racemic) [ranolazine, (±)-N-(2,6-dimethylphenyl)-4-[2-hydroxy-3-(2-methoxyphenoxy)-propyl]-1-piperazineacetamide]	96±3.9	not altered	Neither ivabradine nor ranolazine given separately altered	without causing second-degree AV block	small but significant increase	–	–	–
COc1cc2c(cc1OC)CC(=O)N(CCCN(C)C[C@H]1Cc3cc(OC)c(OC)cc31)CC2 [ivabradine, 3-{3-[{[(7S)-3,4-dimethoxybicyclo[4.2.0]octa-1,3,5-trien-7-yl]methyll}-(methyl)amino]propyl}-7,8-dimethoxy-1,3,4,5-tetrahydro-2H-3-benzapenin-2-one]	90±3.3	–	–	without causing second-degree AV block	small but significant increase	2342±486.5	Neither ivabradine nor ranolazine given separately altered	not altered
